Literature values in US20140370086A1, “SUBLINGUAL IMMUNOTHERAPY WITH REDUCED ORAL ITCHINESS” (priority 2013, published 2014).

Details: at high doses

In the case of O=C(O)c1cc(=O)c2c(OCC(O)COc3cccc4oc(C(=O)O)cc(=O)c34)cccc2o1 [Cromolyn, Cromolyn sodium (cromoglicic acid)], the toxicity is listed as “no toxicity at high doses”.
